Experimental data as given in ChEMBL document CHEMBL1201862, “PubChem BioAssay data set” (2004).
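These data come from cells grown in 96-well plates and exposed to compound for 48 hours at five concentrations. The concentration for 50% growth inhibition is given as GI50.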 Calls of active or inactive are those of the source. No stated cut-off is given here; in the data, active = GI50 up to about 1.1 µM and inactive = higher.

Experiments:
Assay in all cases: DTP human tumour cell line panel, 48 h
RXF 393 = system: RXF 393
HOP-92 = system: HOP-92
SK-MEL-5 = system: SK-MEL-5
IGROV-1 = system: IGROV-1
HT-29 = system: HT-29
SNB-75 = system: SNB-75
UACC-62 = system: UACC-62
SK-MEL-28 = system: SK-MEL-28
A498 = system: A498
MDA-N = system: MDA-N
M14 = system: M14
SNB-19 = system: SNB-19
TK-10 = system: TK-10
OVCAR-4 = system: OVCAR-4
MOLT-4 = system: MOLT-4
SW-620 = system: SW-620
HCT-116 = system: HCT-116
OVCAR-5 = system: OVCAR-5
SK-MEL-2 = system: SK-MEL-2
U-251 = system: U-251

Structure (SMILES)	GI50 (RXF 393)	GI50 (HOP-92)	GI50 (SK-MEL-5)	GI50 (IGROV-1)	GI50 (HT-29)	GI50 (SNB-75)	GI50 (UACC-62)	GI50 (SK-MEL-28)	GI50 (A498)	GI50 (MDA-N)	GI50 (M14)	GI50 (SNB-19)	GI50 (TK-10)	GI50 (OVCAR-4)	GI50 (MOLT-4)	GI50 (SW-620)	GI50 (HCT-116)	GI50 (OVCAR-5)	GI50 (SK-MEL-2)	GI50 (U-251)
CCN(CC)/C(Sc1ccccc1)=C(\C(Cl)=C(Cl)Cl)[N+](=O)[O-]	13.6 µM (inactive)	14.2 µM (inactive)	14.1 µM (inactive)	16 µM (inactive)	21.5 µM (inactive)	20.4 µM (inactive)	14.6 µM (inactive)	17.9 µM (inactive)	21.1 µM (inactive)	16.9 µM (inactive)	17.3 µM (inactive)	20.6 µM (inactive)	16.9 µM (inactive)	33.7 µM (inactive)	6.93 µM (inactive)	17.9 µM (inactive)	16.4 µM (inactive)	–	–	–
CCCCCCCC(=O)O[C@H]1[C@H]2[C@@H](CC1(C)C)C(=O)[C@]13O[C@H]1C(=O)[C@]1(CO1)[C@]23C	2.22 µM (inactive)	1.97 µM (inactive)	4.06 µM (inactive)	4.4 µM (inactive)	5.19 µM (inactive)	23.4 µM (inactive)	3.55 µM (inactive)	3.38 µM (inactive)	9.16 µM (inactive)	8.95 µM (inactive)	3.92 µM (inactive)	17.7 µM (inactive)	2.75 µM (inactive)	4.46 µM (inactive)	0.251 µM (active)	0.706 µM (active)	–	11.1 µM (inactive)	3.7 µM (inactive)	7.83 µM (inactive)
CCOC(=O)c1ccc(Nc2nc3ccc(C(F)(F)F)cc3nc2C(=O)OCC)cc1	> 100 µM (inactive)	> 100 µM (inactive)	> 100 µM (inactive)	> 100 µM (inactive)	> 100 µM (inactive)	95.3 µM (inactive)	> 100 µM (inactive)	> 100 µM (inactive)	> 100 µM (inactive)	> 100 µM (inactive)	> 100 µM (inactive)	> 100 µM (inactive)	> 100 µM (inactive)	–	> 100 µM (inactive)	> 100 µM (inactive)	> 100 µM (inactive)	> 100 µM (inactive)	–	> 100 µM (inactive)
Cc1nc2c(C)c3c([nH]c4ccc(Cl)cc43)c(C)c2c(O)c1C	–	9.53 µM (inactive)	11.8 µM (inactive)	5.27 µM (inactive)	4.37 µM (inactive)	16.8 µM (inactive)	6.44 µM (inactive)	10.8 µM (inactive)	15.3 µM (inactive)	6.73 µM (inactive)	10.9 µM (inactive)	15.7 µM (inactive)	7.33 µM (inactive)	7.24 µM (inactive)	1.63 µM (inactive)	7.52 µM (inactive)	4.29 µM (inactive)	6.76 µM (inactive)	65.2 µM (inactive)	5.73 µM (inactive)
